This is an account of results in patent US11028051B2, “Tetrahydroquinoline-based bromodomain inhibitors” (St. Jude Children's Research Hospital, priority 2016, dated 2021).

SMILES strings stand for the structures. pEC50, pIC50, pKd: −log10 of the molar value. Read-outs that look alike come from different tables or passages of the source. A value given as a limit tells only on which side of the number the result lay.

In one assay the test system is SEM cells. Kind of assay: anti-proliferative activity. The assay is classed as cell-based. The note with it: Table 5. On the procedure: (§1) After 7 days of treatment, an equal volume of CellTiter-Glo reagent (G7572, Promega) was added and the luminescence signal was measured using an automated Envision plate reader (Perkin-Elmer). Luminescence data were normalized by log10 transformation prior to calculating the percent inhibition using the following equation:
(§2) 100*(negative control mean −compound value)/(negative control mean −positive control mean).

The subject of a further assay is NALM-16. Description: anti-proliferative activity. It is filed as cell-based. The note with it: Table 5. On the procedure: as §1, §2
The next assay concerns Loucy. Description: anti-proliferative activity. It is filed as cell-based. The note with it: Table 5. On the procedure: as §1, §2
The target of the next assay is BRDT(1) (Homo sapiens (Human), UniProt Q58F21). Kind of assay: BROMOscan KD determination. It is filed as binding. The note with it: Table 10. An excerpt: (§3) DiscoverX® can screen compounds against all ˜42 bromodomains (a service called BROMOscan) and perform follow-up KD determination. This service is considered the industrial standard for bromodomain inhibitor comparisons. […] Dots are symbolic of inhibition of the compound at this concentration; the larger the size of the dot, the greater the activity of the compound. […] Though these compounds are selective for the BET family, the selectivity within the BET family is poor. The results of a competitive binding experiment between compounds 19 (left), 41 (center), and 56 (right) (at a single concentration, 1 μM) and a control for each of the bromodomains are shown in FIG. 5.

The target of the next assay is BRDT(2) (Homo sapiens (Human), UniProt Q58F21). Description: BROMOscan KD determination. The assay is classed as binding. The note with it: for pKd: BROMOscan, Table 10.
Description: as §3

The target in another assay is BRD2(1) (Homo sapiens (Human), UniProt P25440). Kind of assay: BROMOscan KD determination. As to conditions: Table 10. The assay is classed as binding.
Description: as §3

The target of the next assay is BRD2(2) (Homo sapiens (Human), UniProt P25440). Description: BROMOscan KD determination. The assay is classed as binding. As to conditions: for pKd: BROMOscan, Table 10.
Description: as §3

For the next assay, the system named is all ~42 bromodomains. Kind of assay: BROMOscan competitive binding experiment at a single concentration. The note with it: 1 μM, FIG. 4.
Description: as §3

For assay [1], the system named is c-Myc expression in HDMB03 cells. Description: c-Myc expression inhibition, high content microscopy (HCM). It is filed as cell-based, human. The note with it: read-out: EC50 (μM) Myc-inhibition.
Description: 3000 human G3 medulloblastoma or 2000 mouse SHH medulloblastoma cells per well were plated into 384-well plates (6007710, Perkin Elmer) in 30 μL of supplemented neurobasal medium using a Wellmate automated dispenser (Thermo Matrix). After 24 hours, 125 nl of compound was transferred via pin tool, resulting in a final drug concentration from 2 nM to 40 μM. 72 hours after adding the drug, the plates were fixed with 4% formaldehyde for 20 min. After fixation the cells were then washed 3 times with 75 μl of PBS. The cells were then permeabilized with 0.1% Triton-X 100 for 15 minutes at 25° C. and blocked using 1% BSA in PBS for 1 hour at 25° C. The primary antibody against c-Myc Ab (#9402, Cell Signaling) at a 1:400 dilution was diluted in 1% BSA in PBS. This mixture was added to each well before incubation overnight at 4° C. Each well was then washed 3 times with PBS using a Biotek ELX405 Select plate washer, and incubated for 1 hour at 25° C. with a solution containing 1/400 goat α-rabbit-Alexa-488 (4412S, Cell Signaling) and 1 μM Hoechst 33342 to detect nuclear material (H3570, Molecular Probes). Two images were captured of each well at 10× using a GE Healthcare InCell 6000 at 405 nM to detect nuclear staining and 488 nM to detect c-Myc. All data were analyzed using the multi-target analysis algorithm of the GE InCell Analyzer Workstation software. The number of nuclear objects in each well, as well as all nuclear measurements, was determined through nuclear masks over the Hoechst staining. C-Myc staining was then measured using top-hat segmentation in the entire cell.
Another assay concerns HDMB03 cells. Kind of assay: cell viability, CellTiter-Glo. The assay is classed as cell-based, human. The note with it: read-out: EC50 (μM) HDMB03. The gist of the method: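 Medulloblastoma cells grown as neurospheres in supplemented neurobasal medium and treated for 7 days; viability read by CellTiter-Glo luminescence. Log10-transformed signal normalized to negative and positive controls; median percent inhibition of triplicates fitted with a four-parameter log-logistic model.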
In general terms: Cellular ATP, detected with luciferase, serves as a proxy for viable cell number.

The next assay deals with BRD3(2) (Homo sapiens (Human), UniProt Q15059). Description: BROMOscan KD determination. The assay is classed as binding. As to conditions: for pKd: BROMOscan, Table 10. From the text: (§4) DiscoverX® can screen compounds against all ˜42 bromodomains (a service called BROMOscan) and perform follow-up KD determination. This service is considered the industrial standard for bromodomain inhibitor comparisons.

Another assay has as its target BRD3(1) (Homo sapiens (Human), UniProt Q15059). Kind of assay: BROMOscan KD determination. The assay is classed as binding. As to conditions: Table 10.
Description: as §4

For a further assay, the target named is BRD2-BD1 (Homo sapiens (Human), UniProt P25440). Description: competitive TR-FRET assay, BET-BD with acetylated peptide ligand. As to conditions: read-out: EC50 (μM) BRD2(1). The assay is classed as binding. As to the method: (§5) Inhibitor potency was determined using a competitive TR-FRET assay as detailed herein, measuring interaction of the respective BET-BD with an acetylated peptide ligand (Table 2).

A further assay deals with BRD2-BD2 (Homo sapiens (Human), UniProt P25440). The description is as above. It is filed as binding. The note with it: for EC50: read-out: EC50 (μM) BRD2(2); for [2(1)/2(2)]: Table 4, ratio of EC50. As to the method:
as §5

For the next assay, the target named is BRDT (Homo sapiens, UniProt Q58F21). The description is as above. The assay is classed as binding. On the procedure:
as §5

Assay [2] concerns c-Myc oncogene expression. As to conditions: previous study with BD2-selective BET inhibitor; cited from earlier work.
In the next assay the target is BRD3-BD1 (Homo sapiens (Human), UniProt Q15059). Kind of assay: competitive TR-FRET assay, BET-BD with acetylated peptide ligand. The assay is classed as binding. As to conditions: Table 4; read-out: BRD3(1). On the procedure:
as §5

The next assay deals with BRD4-BD1 (Homo sapiens (Human), UniProt O60885). The description is as above. It is filed as binding. The note with it: Table 4; read-out: EC50 (μM) BRD4(1). On the procedure: as §5
The target in another assay is BRD4-BD2 (Homo sapiens (Human), UniProt O60885). Described as above. The assay is classed as binding. As to conditions: for 4(1)/4(2): Table 4, ratio of EC50; for EC50: Table 4, read-out: EC50 (μM) BRD4(2). As to the method: as §5
Another assay deals with BRD4(1) (Homo sapiens (Human), UniProt O60885). Kind of assay: BROMOscan KD determination. It is filed as binding. The note with it: Table 10.
Description: as §4

The target in another assay is BRD4(2) (Homo sapiens (Human), UniProt O60885). Description: BROMOscan KD determination. The assay is classed as binding.
Description: as §4

The test system of assay [3] is neural crest tumor cell lines. Description: activity versus neural crest tumor cell lines. It is filed as cell-based. As to conditions: several neural crest tumor cell lines; read-out: IC50 ranges.

Chain of BRD3(2) (Q15059 306-415): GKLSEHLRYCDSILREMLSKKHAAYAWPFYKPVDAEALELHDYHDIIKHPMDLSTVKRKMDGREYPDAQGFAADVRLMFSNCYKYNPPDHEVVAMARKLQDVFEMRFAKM
Chain of BRD2-BD1 (P25440 74-180): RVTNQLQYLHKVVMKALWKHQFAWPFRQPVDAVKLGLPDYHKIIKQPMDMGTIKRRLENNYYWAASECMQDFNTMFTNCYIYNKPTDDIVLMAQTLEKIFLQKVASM
Chain of BRD3-BD1 (Q15059 34-140): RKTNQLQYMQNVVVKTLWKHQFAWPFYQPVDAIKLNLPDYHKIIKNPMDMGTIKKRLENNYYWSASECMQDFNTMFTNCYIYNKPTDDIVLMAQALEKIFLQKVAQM
Chain of BRD2(2) (P25440 344-453): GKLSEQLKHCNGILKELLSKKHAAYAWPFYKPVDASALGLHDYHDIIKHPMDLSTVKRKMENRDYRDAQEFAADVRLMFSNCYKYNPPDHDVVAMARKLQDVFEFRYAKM
Chain of BRD2-BD2 (P25440 344-453): as above
Chain of BRD2(1) (P25440 74-180): as the sequence (P25440 74-180) above
Chain of BRD3(1) (Q15059 34-140): as the sequence (Q15059 34-140) above

Broadly, the EC50 is the midpoint of the concentration-response curve. For orientation: pKd means the Kd on a negative log10 scale, so that one unit is a factor of ten. High values mean a low Kd, low ones a high Kd. As for `CC(=O)N1c2ccc(-c3ccc(C(=O)O)cc3)cc2[C@H](Nc2ccc(Cl)cc2)C[C@@H]1C` [GSK-726, IBET-726, reference compound], the 50% effective concentration (EC50) in the assay on SEM cells was 0.02 µM; in the assay on NALM-16, 0.23 µM; in the assay with Loucy, 0.33 µM; in assay [1] (Table 5), 0.17 µM; in assay [1] (Table 7), 1.5 µM; in assay [1] (Table 9, c-Myc expression inhibition in HDMB03 cells), 1.5 µM. The EC50 in the assay with HDMB03 cells (Table 5) was 5.77 µM; with HDMB03 cells (Table 7), 0.95 µM; with HDMB03 cells (Table 9, cancer cell proliferation inhibition), 0.95 µM; on BRD2-BD1 (Table 4) it was 1 µM; at BRD2-BD1 (Table 6), 1.3 µM; on BRD2-BD1 (Table 8), 1.3 µM. In addition, the EC50 at BRD2-BD2 (Table 4) came to 0.057 µM; on BRD2-BD2 (Table 6), 0.19 µM; at BRD2-BD2 (Table 8), 0.19 µM. In addition, the pKd is 8.35 at BRDT(1); 9.05 at BRDT(2); 8.33 at BRD2(1); 9.70 at BRD2(2); 9.70 at BRD3(2); 8.51 on BRD3(1). Moreover, in the assay on all ~42 bromodomains, the “activity across bromodomain families” value is given as “activity only versus the BET family”. Besides, the pEC50 on BRDT (Table 4, read-out: BRDT EC50) was 5.28; on BRDT (Table 6, head names no target, BRDT by comparison with Table 4, read-out: EC50), 5.26; on BRDT (Table 8, head names no target, BRDT by comparison with Table 4, read-out: EC50), 5.26.

On to `COc1cc(OC)c2c(=O)[nH]c(-c3cc(C)c(OCCO)c(C)c3)nc2c1` [RVX-208], for which the c-Myc oncogene expression entry in [2] was “did not inhibit c-Myc oncogene expression”.

`CC(=O)Nc1cccc(-c2ccc3c(c2)[C@H](Nc2ccc(Cl)cc2)C[C@H](C)N3C(C)=O)c1` [compound 10]: the 50% effective concentration (EC50) in the assay with NALM-16 (NALM16) worked out at 0.33 µM; in assay [1] (Homo sapiens, HD-MB03, Table 5), 0.68 µM; in the assay with HDMB03 cells (Homo sapiens, HD-MB03, Table 5), 1.18 µM; on BRD2-BD1 (Table 4), 2.6 µM; on BRD4-BD1, 3.1 µM; at BRD4-BD2 it was 0.21 µM. The EC50 at BRD2-BD2 (Table 4) amounted to 0.08 µM. In addition, the pEC50 at BRD3-BD1 was 5.72; on BRDT (Table 4, read-out: BRDT EC50), 5.43. For the same compound, the “4(1)/4(2)” value on BRD4-BD2 was 15. Besides, on BRD2-BD2, the “[2(1)/2(2)]” value worked out at 33.

As for `CC(=O)Nc1cccc(-c2ccc3c(c2)[C@H](Nc2ccccc2OC(F)(F)F)C[C@H](C)N3C(C)=O)c1` [compound 19], the EC50 was 0.04 µM with SEM cells; > 1.7 µM in the assay on NALM-16 (NALM16); 0.11 µM in assay [1] (Homo sapiens, HD-MB03, Table 5); 1.14 µM in the assay with HDMB03 cells (Homo sapiens, HD-MB03, Table 5); 8.3 µM at BRD2-BD1 (Table 4); 8.3 µM at BRD4-BD1. Besides, the values for the EC50 at BRD4-BD2 and at BRD2-BD2 (Table 4) were 0.14 µM and 0.16 µM, respectively. Besides, the negative-log Kd (pKd) on BRDT(1) is 7.14; on BRDT(2) it was 7.96; on BRD2(1), 6.77; on BRD2(2), 8.46; at BRD4(1) it was 7.00; at BRD3(2) it was 8.89. Also, the negative-log Kd (pKd) on BRD4(2) (BROMOscan, Table 10) was 8.77; at BRD3(1), 6.96. At BRDT(2) (BROMOscan KD ratio), the “T(1)/T(2)” value is given as 6.5. Besides, the “[2(1)/2(2)]” value was determined as 48.6 at BRD2(2) (BROMOscan KD ratio) and 52 on BRD2-BD2. Moreover, on BRD3(2) (BROMOscan KD ratio), the “3(1)/3(2)” value was 84.6. The “4(1)/4(2)” value on BRD4(2) (BROMOscan KD ratio) is given as 58.2; at BRD4-BD2, 59. Further, the pEC50 is 5.27 at BRD3-BD1 and 5.00 at BRDT (Table 4, read-out: BRDT EC50).

A word on the pIC50: it is −log10 of the IC50, conventionally taken in molar units. Take `COc1ccccc1N[C@@H]1C[C@H](C)N(C(C)=O)c2ccc(-c3cccc(NC(C)=O)c3)cc21` [compound 40]: the concentration giving a half-maximal response (EC50) turned out to be 0.02 µM in the assay with SEM cells; 0.26 µM in the assay on NALM-16 (NALM16); 0.32 µM with Loucy; 0.49 µM in assay [1] (Homo sapiens, HD-MB03, Table 5); 17.6 µM in the assay on HDMB03 cells (Homo sapiens, HD-MB03, Table 5); 4.2 µM on BRD2-BD1 (Table 4). For the same compound, the EC50 at BRD4-BD1 was 6 µM; at BRD4-BD2, 0.1 µM; at BRD2-BD2 (Table 4), 0.06 µM. For the same compound, the negative logarithm of the IC50 (pIC50) in [3] was 6.70 to 7.30. The pEC50 is 5.70 on BRD3-BD1 and 5.04 on BRDT (Table 4, read-out: BRDT EC50). The “4(1)/4(2)” value at BRD4-BD2 was 52.9. Moreover, the “[2(1)/2(2)]” value at BRD2-BD2 was found to be 75.
